From patent US20090311176A1, “2-Arylpyrazolo[L,5-Alpha] Pyrimidin-3-YL Acetamide Derivatives as Ligands for Translocator Protein (18 Kda)” (The University of Sydney, priority 2006, published 2009)

Columns and labels:
CBR = CBR binding with [^3H]Ro 15-1788, rat brain tissue; conditions: for affinity for the CBR (in words): [^3H]Ro 15-1788, rat brain tissue; for Ki: [^3H]Ro 15-1788 radioligand, rat brain tissue
Rat glioma C6 cells = assay: Steroid biosynthesis (pregnenolone) assay in C6 cells; type: cell-based; conditions: 40 μM
Method: All compounds were used at the same concentration (40 μM); at the end of the incubation period (2 h), the amount of pregnenolone was quantified by radio immunoassay (RIA). The values are the mean of at least three determinations.
Rat glioma C6 cells were cultured in Dulbecco's modified Eagle's medium supplemented with 10% FBS, 2 mM L-glutamine, 100 units/mL penicillin and 100 μg/mL streptomycin. Cultures were maintained in a humidified atmosphere of 5% CO2/95% air at 37° C.
C6 cells were seeded in 24-well plates at a density of ˜1×10^6 cells/well in a final volume of 1 ml. Prior to measurement of pregnenolone production the cells were washed three times with a simple salts medium consisting of 140 mM NaCl, 5 mM KCl, 1.8 mM CaCl2, 1 mM MgSO4, 10 mM glucose, 10 mM HEPES/NaOH, pH 7.4, plus 0.1% BSA. During experiments, cells were incubated with this simple salts medium in an air incubator at 37° C. […] At the end of the incubation period (2 h) the cell medium was retained and centrifuged at 1500 g for 10 min. The amount of pregnenolone secreted into the medium was quantified by radio immunoassay (RIA), using an antibody obtained from ICN Biochemical Inc., Calif., USA, under the conditions recommended by the supplier.

[1] = Log D determined via HPLC; type: physicochemical
[2] = test system: peripheral benzodiazepine receptor; conditions: monkey occipital cortex, PET; cited from earlier work
TSPO [3] = assay: In vivo [^18F]DPA-714 baboon PET studies (baseline, blocking, displacement); design: species or system Papio hamadryas baboon
Method: This dual modality device has a fully-3D PET scanner with 24 crystal rings and a dual slice CT scanner in the same gantry. It yields a reconstructed PET spatial resolution of 6.3 mm full width at half maximum (FWHM) at the centre of the field of view. The baboon was initially anaesthetized with ketamine (8 mg/kg, im). Anaesthesia was maintained with the use of an iv infusion of ketamine (Parnell Laboratory, Australia) in saline at a dose rate of 0.2 mg ketamine/kg/min. The baboon also received MgSO4 (2 mL iv) given over half an hour plus atropine (1 mg im) plus maxalon (5 mg im). The head of the baboon was immobilised with plastic tape to minimise motion artifacts. A CT scan of the head was completed prior to radioligand injection. Acquisition of the PET data in list mode was commenced just prior to radioligand injection and continued for a period of 60 min. […] At the conclusion of each study the list mode data were sorted into a dynamic scan comprising 54 frames (20×30 s, 30×60 s and 4×300 s). […] The radioligand uptake was converted to units of percent injected dose per volume of brain tissue (% dose/mL) and plotted against time.
Decay corrected time activity curves representing the variation in ligand concentration vs. time were constructed from selected slices for regions of interest over the thalamus, cerebellum, striaturn, cortex, skull and whole brain. After the list-mode acquisition, a whole body PET-CT scan was performed, 2 minutes at each of the six bed positions, to determine other sites of radioligand uptake.

[4] = In-vivo stability of [^18F]DPA-714 in rat plasma (TLC); conditions: 2 h post tracer injection
Sprague-Dawley rat = assay: Single intravenous dose toxicity study in the rat; type: in vivo
Method: The study involved 2 groups of […] SPF Sprague-Dawley rats (each of 5 males and 5 females), 7 weeks old and weighing between 193.1 g and 215 g for males and between 160.6 g and 180.1 g for females on the day of randomisation. Animals were purchased from Charles River Laboratories France (Domaine des Oncins—69592 L'Arbresle Cedex, France).
Animals were weighed on the day of randomisation, on D7, D14 and D15 (day of necropsy).
General observations were performed on D1, 60 minutes±30 minutes after dosing, again between 3 and 4 hours post-dose and then once a day for 14 days. Functional and neurobehavioural tests were also assessed on D1, 60 minutes±30 minutes after dosing and then on D7 and D 14. Mortality was recorded twice a day for 14 days. All animals surviving at the end of the 14-day period were submitted to gross necropsy.

TSPO [5] = molecular target: T1, TSPO (Rattus norvegicus, UniProt P16257); assay: Ex vivo biodistribution of [^18F]DPA-714 in QA lesioned rats; conditions: pre-injection 15 min before radioligand; PK 11195 5 mg/kg, DPA-714 and DPA-713 1 mg/kg
T1 construct: from tissue; host or cells: living rat; peripheral tissues and brain regions
Method: Adult male Wistar rats weighing 300-320 g (Janvier, Le Genest-St-Isle, France) were used for ex vivo experiments.
Quinolonic acid (QA) lesions: Rats were anesthetised with isoflurane (4%, 500 mL/min), placed on a stereotaxic apparatus (Stoelting, Phymep, Paris, France) and were maintained under isoflurane 2% (500 mL/min) during surgery. The skull was exposed and small holes were made with use of a dental drill. […] A cannula (gauge 25, Hamilton, Massy, France) was inserted and a solution of QA (300 nmol in 2 μL phosphate buffer, pH 7.4) was infused at a flow rate of 0.5 μL/min. The syringe was left in place for 4 minutes before being removed to avoid backflow of QA. The bone was filled in with wax and the scalp was then sutured.
For peripheral tissue, results were expressed as the ratio (% ID/g tissue)/(% ID/g blood)±SEM. For brain, results were expressed as the ratio (% ID/g cerebral region)/(% ID/g cerebellum)±SEM. Student t test was performed when the number of data was ≧5. Statistic significance was considered for p<0.05.

[6] = molecular target: T2, peripheral benzodiazepine receptor (PBR) (Rattus norvegicus, UniProt P16257); assay: PET in rat model of HSV encephalitis; type: in vivo; conditions: olfactory and retrograde brain areas where HSV-1 accumulates
T2 construct: from tissue; host or cells: living rat (brain, PET and ex vivo biodistribution)
From the text: Male Wistar rats were intranasally inoculated with the herpes simplex virus type-1(10^7 PFU in 1001 PBS) or PBS (control). Within a week following inoculation, replicating virus migrated into the brain and induced neuroinflammation.

In the case of `CCN(CC)C(=O)Cc1c(-c2ccc(OC)cc2)nn2c(C)cc(C)nc12` [DPA-713, N,N-Diethyl-2-[2-(4-methoxy-phenyl)-5,7-dimethylpyrazolo[1,5-a]pyrimidin-3-yl]-acetamide], the “affinity for the CBR (in words)” value (CBR) was “negligible”, the Ki (CBR) was > 10000 nM and the “effect on steroidogenesis (in words)” value (Rat glioma C6 cells; 2 h, C6 glioma rat cells) was “no effect”. It also gave a chromatographic logD [1] of 2.44.

In the case of `COc1ccc(O[11CH3])c(CN(C(C)=O)c2cc(F)ccc2Oc2ccccc2)c1` [[^11C]DAA1106], the “binding compared with [^11C](R)-PK 11195” value [2] is listed as “four times greater”.

With `CCN(CC)C(=O)Cc1c(-c2ccc(OCC[18F])cc2)nn2c(C)cc(C)nc12` [[^18F]DPA-714] the “uptake in the baboon skull” value (TSPO [3]; baseline PET study) was “No uptake”, the “blood brain barrier penetration / accumulation in the brain” value (TSPO [3]; baseline PET study, 100 MBq i.v., baboon) was “capable of penetrating the blood brain barrier with considerable accumulation in the brain” and the “time to maximum uptake in whole baboon brain” value (TSPO [3]; baseline study, time activity curve) was “within ten minutes”. The “whole body uptake in the heart, adrenals and salivary glands” value (TSPO [3]; whole body PET after brain imaging) was “high uptake” and the “radioactivity in rat plasma consisting of the parent compound” value [4] was 78±1%.

In the case of `CCN(CC)C(=O)Cc1c(-c2ccc(OCCF)cc2)nn2c(C)cc(C)nc12` [DPA-714, N,N-Diethyl-2-{2-[4-(2-fluoro-ethoxy)-phenyl]-5,7-dimethyl-pyrazolo[1,5-a]pyrimidin-3-yl}-acetamide], the “displacement of [^18F]DPA-714 from whole baboon brain” value (TSPO [3]; cold DPA-714 1 mg/kg at 20 minutes post injection) was “complete washout of the radioligand”, the “displacement of [^18F]DPA-714 binding in peripheral regions” value (TSPO [3]; cold DPA-714 at 20 minutes after radioligand, data not shown) was “complete displacement” and the toxicity signs overall (Sprague-Dawley rat; administered once i.v. at 5 mL/kg, batch No. 140306) was “did not induce any toxicity sign”. The LD50 (Sprague-Dawley rat; rat, in vivo, iv) was “higher than 5 mL/kg”, the “affinity for the CBR (in words)” value (CBR) was “negligible” and the Ki (CBR) was > 10000 nM. For the same molecule, the “pregnenolone synthesis above baseline” value (Rat glioma C6 cells; 2 h, C6 glioma rat cells, RIA) was 80%, the “activity at stimulating neurosteroid synthesis compared with PK 11195” value (Rat glioma C6 cells; same assay) was “twice more active” and the chromatographic logD [1] was 2.44.

With `CCC(C)N(C)C(=O)c1cc2ccccc2c(-c2ccccc2Cl)n1` (stereo not drawn) [PK 11195] the “inhibition of [^18F]DPA-714 uptake in peripheral tissues by pre-treatment” value (TSPO [5]) was “significant inhibition of radioligand uptake in the heart, bone and liver but not in the adrenals and muscle”, the “affinity for the CBR (in words)” value (CBR) was “negligible” and the Ki (CBR) was > 10000 nM. The chromatographic logD [1] was 3.35.

For `CCC(C)N([11CH3])C(=O)c1cc2ccccc2c(-c2ccccc2Cl)n1` (stereo not drawn) [[^11C]PK11195], the “uptake in HSE rats versus control (in words)” value [6] was “not significantly increased”.
